Measurements as given in patent publication US20080182859A1 (Curis, Inc., priority 2006, published 2008).
Counter-ions that a name gives are not always drawn.

How the values were obtained:
C57BL/6 male mice [1] = assay: C57BL/6 hair growth after topical dosing; type: in vivo, mouse; conditions: shaved lower back, dosed topically once, visually graded for melanogenesis and hair regrowth
Procedure: (§1) A mouse model of male pattern baldness is used to investigate the effectiveness of the present compounds for growing hair. Agonists for the sonic hedgehog pathway that act by binding and activating Smoothened were tested in a formulation of 50:30:20 PG:EtOH:water or 5:95 DMSO:acetone vehicle. C57BL/6 male mice (48-52 days old on arrival) from Charles River Labs were used on the study. The mice were housed and cared for according to established procedures. Food and water were ad libitum. On Day 0, the mice were shaved on their lower back, an area of ˜1.5 inches x ˜2 inches with Wahl clippers using a surgical blade. On day −3, the mice were anesthetized with isoflurane, their back was rinsed with a pad of 70% ethanol, a placebo pellet or a DHT pellet (2.5 mg 21 day pellet) were implanted subcutaneously between the shoulder blades with a 10 gauge trochar. DHT pellet transplantation results in maintenance of existing hair follicles in the resting (telogen) phase. The hole was stapled with a sterile autoclip and the mice were returned to their cage after awaking. The mice were dosed topically once and visually graded daily, except weekends, for melanogenesis and hair regrowth of fur in the dosed area (Table 4).

C57BL/6 male mice [2] = assay: DHT-induced alopecia (mouse model of male pattern baldness); type: in vivo; conditions: C57BL/6 male mice with subcutaneous DHT pellet (2.5 mg 21 day), dosed topically once, visually graded for hair regrowth
Procedure: as §1
In the absence of treatment with the present compounds, the follicles remain in telogen rather than following the normal time course of the mouse hair cycle.

sonic hedgehog pathway [3] = assay: Hedgehog pathway Gli-luciferase reporter assay, TM3 cells; type: cell-based; conditions: TM3 mouse Leydig cells
Procedure, shortened: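 Luminescence read-out of gli-promoter luciferase in stably transfected cells; 11-point 1:3 dose curves, 24 h compound exposure in 0.5% FBS, ± octyl-modified Hh protein 1–5 ng/ml. AMAX as % of plate low/high controls; EC50 from curve; >20% AMAX counted active.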

sonic hedgehog pathway [4] = assay: Human hedgehog reporter assay Daoy-GliLuc (DGL); type: cell-based; conditions: Daoy human medulloblastoma cells, Gli-luciferase reporter; read-out: Daoy Avg. EC50
Procedure, shortened: (§2)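 Reporter cells stably selected after gli-luciferase plasmid transfection; test article dosed over 11 points (1:3). Read as luminescence after 24 h treatment in 0.5% serum; activity >20% AMAX versus plate controls deemed active.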

sonic hedgehog pathway [5] = assay: Human hedgehog reporter assay HEPM-GliLuc (HGL); type: cell-based; conditions: HepM human embryonic palatal mesenchymal cells, Gli-luciferase reporter
Procedure, shortened: as §2

sonic hedgehog pathway [6] = assay: Hedgehog pathway Gli-luciferase reporter assay, S12 cells; type: cell-based; conditions: S12 mouse embryonic mesenchymal cells, read-out: S12 Avg. EC50
Procedure, shortened: as §2

EC50 (sonic hedgehog pathway [3]) [nM] | EC50 (sonic hedgehog pathway [4]) [nM] | Compound | C57BL/6 Hair Growth (C57BL/6 male mice [1]) | Androgenetic Alopecia (C57BL/6 male mice [2]) | EC50 (sonic hedgehog pathway [5]) [nM] | EC50 (sonic hedgehog pathway [6]) [nM]
 |  | CCOc1ccc(-c2ccc(C)nc2)cc1CN(C(=O)c1sc2ccccc2c1Cl)[C@H]1CC[C@H](NC)CC1 | yes |  |  | 
 |  | CCOc1ccc(-c2ccc(C#N)cc2)cc1CN(C(=O)c1sc2ccccc2c1Cl)[C@H]1CC[C@H](NC)CC1 | yes |  |  | 
 |  | CN[C@H]1CC[C@H](N(Cc2cc(-c3ccnc(C(=O)O)c3)ccc2OC)C(=O)c2sc3c(F)ccc(F)c3c2Cl)CC1 | no |  |  | 
 |  | CN[C@H]1CC[C@H](N(Cc2cc(-c3ccccc3)ccc2OC)C(=O)c2sc3ccccc3c2Cl)CC1 | yes | yes |  | 
 |  | CN[C@H]1CC[C@H](N(Cc2cc(-c3ccnc(C(=O)N(C)C)c3)ccc2OC)C(=O)c2sc3c(F)ccc(F)c3c2Cl)CC1 | yes | yes |  | 
 |  | CN[C@H]1CC[C@H](N(Cc2cc(-c3ccc(C(N)=O)cc3)ccc2OC)C(=O)c2sc3c(F)ccc(F)c3c2Cl)CC1 | yes | yes |  | 
 |  | CN[C@H]1CC[C@H](N(Cc2cc(-c3ccc(N)nc3)ccc2OC)C(=O)c2sc3cccc(F)c3c2Cl)CC1 | yes | yes |  | 
< 50 | < 50 | CN[C@H]1CC[C@@H](N(Cc2cc(-c3ccc(C(=O)N(C)C)cc3)ccc2OC)C(=O)c2sc3c(F)ccc(F)c3c2Cl)CC1 [Compound 333, 3-Chloro-4,7-difluoro-benzo[b]thiophene-2-carboxylic acid (4′-dimethylcarbamoyl-4-methoxy-biphenyl-3-ylmethyl)-(4-methylamino-cyclohexyl)-amide hydrochloride] |  |  | < 50 | < 50
< 50 | < 50 | CN[C@H]1CC[C@@H](N(Cc2cc(-c3ccc(C(N)=O)cc3)ccc2OC)C(=O)c2sc3cccc(F)c3c2Cl)CC1 [Compound 346, 3-Chloro-4-fluoro-benzo[b]thiophene-2-carboxylic acid (4′-carbamoyl-4-methoxy-biphenyl-3-ylmethyl)-(4-methylamino-cyclohexyl)-amide hydrochloride] |  |  | < 50 | < 50
 |  | CN[C@H]1CC[C@H](N(Cc2cc(-c3ccc(NS(C)(=O)=O)nc3)ccc2OC)C(=O)c2sc3c(F)ccc(F)c3c2Cl)CC1 | yes |  |  | 
< 50 | < 50 | CN[C@H]1CC[C@@H](N(Cc2cc(-c3ccc(S(C)(=O)=O)cc3)ccc2OC)C(=O)c2sc3c(F)ccc(F)c3c2Cl)CC1 [Compound 335, 3-Chloro-4,7-difluoro-benzo[b]thiophene-2-carboxylic acid (4′-methanesulfonyl-4-methoxy-biphenyl-3-ylmethyl)-(4-methylamino-cyclohexyl)-amide hydrochloride] |  |  | < 50 | < 50
< 50 | < 50 | CN[C@H]1CC[C@H](N(Cc2cc(-c3ccnc(C(=O)OC)c3)ccc2OC)C(=O)c2sc3c(F)ccc(F)c3c2Cl)CC1 [Compound R5, Methyl 4-(3-{[(3-chloro-4,7-difluoro-benzo[b]thiophene-2-carbonyl)-(4-methylamino-cyclohexyl)-amino]-methyl}-4-methoxy-phenyl)-pyridine-2-carboxylate] |  |  | < 50 | < 50
< 50 | < 50 | CN[C@H]1CC[C@@H](N(Cc2cc(-c3ccc(C)nc3)ccc2OC)C(=O)c2sc3c(F)ccc(F)c3c2Cl)CC1 [Compound 334, 3-Chloro-4,7-difluoro-benzo[b]thiophene-2-carboxylic acid [2-methoxy-5-(6-methyl-pyridin-3-yl)-benzyl]-(4-methylamino-cyclohexyl)-amide bis(trifluoroacetate)] |  |  | < 50 | < 50

Compound | EC50 (sonic hedgehog pathway [3]) [nM] | EC50 (sonic hedgehog pathway [4]) [nM] | C57BL/6 Hair Growth (C57BL/6 male mice [1]) | Androgenetic Alopecia (C57BL/6 male mice [2]) | EC50 (sonic hedgehog pathway [5]) [nM] | EC50 (sonic hedgehog pathway [6]) [nM]
CN[C@H]1CC[C@@H](N(Cc2cc(-c3cccnc3)ccc2OC)C(=O)c2sc3cccc(F)c3c2Cl)CC1 [360 (R16), 3-Chloro-4-fluoro-benzo[b]thiophene-2-carboxylic acid (2-methoxy-5-pyridin-3-yl-benzyl)-(4-methylamino-cyclohexyl)-amide dihydrochloride] | < 50 | < 50 |  |  | < 50 | < 50
